“Also recorded” adds a separate entry of the source.
Key:
[1] = test system: male-sterile mutant (dad1); conditions: Ishiguro et al. (2001); cited from earlier work
[2] = test system: triple mutant (fad3-2/fad7-2/fad8); conditions: mutant lacking hexadecatrienoic acid (16:3) and LA (18:3); McConn and Browse (1996); cited from earlier work
Arabidopsis aos mutant = type: in vivo, Arabidopsis thaliana; conditions: for rescue of male sterile phenotype (silique elongation, fertility) of aos mutant: flower buds of 4 week old plants, twice a day for two days, 1% LA or 2 mM MeJA sprayed, 1 mM OPDA dipped, siliques monitored two weeks; for time after application at which aos mutant siliques started to elongate / time for aos mutant siliques to reach the wild-type silique size: after OPDA and MeJA spraying
Experimental: Application of linolenic acid (LA; Cayman Chemical, USA) and methyl jasmonate (MeJA; Sigma-Aldrich, USA) to recover male sterility of Arabidopsis aos mutant was done by spraying 1% of LA and 2 mM MeJA directly on Arabidopsis flower buds of 4 week old plants grown under long day condition. Oxo-phytodienoic acid (OPDA; Cayman Chemical, USA) was applied by dipping of floral buds in the 1 mM OPDA and 0.01% TritonX-100 (Sigma-Aldrich, USA) solution. These plants were sprayed twice a day for two days. The plants were monitored for silique production over the next two weeks.
The AOS gene is important in jasmonate biosynthesis because it catalyzes the most upstream step in the JA-specific biosynthetic pathway (FIG. 1).

Structure (SMILES)	rescue of sterility phenotype [1]	rescue of male sterility [2]	rescue of male sterile phenotype (silique elongation, fertility) of aos mutant (Arabidopsis aos mutant)	time after application at which aos mutant siliques started to elongate (Arabidopsis aos mutant)	time for aos mutant siliques to reach the wild-type silique size (Arabidopsis aos mutant)
CC/C=C\C[C@H]1C(=O)CC[C@@H]1CC(=O)O [jasmonic acid, Jasmonic acid]	could be rescued	could be rescued	restoration of essentially wild-type siliques and recovered fertility		
CC/C=C\CC1C(=O)CCC1CC(=O)OC (stereo not drawn) [MeJA, methyl jasmonate]			rescued to wild-type; also recorded: can rescue the aos male sterile phenotype	Two	in a week
CC/C=C\C[C@@H]1C(=O)C=C[C@@H]1CCCCCCCC(=O)O [OPDA, Oxo-phytodienoic acid]			rescued to wild-type	Two	in a week

Reference: patent US7132590B2, “Methods of making male-sterile plants by underexpressing allene oxide synthase” (The Arizona Board of Regents on Behalf of the University of …, priority 2001, dated 2006)
